Measured values reported in patent US9487504B2, “Imidazolyl analogs as syk inhibitors” (Merck Sharp & Dohme Corp., priority 2012, dated 2016).
Like-named read-outs stand apart in the source and are kept apart here.

How the values were obtained:
[1] = target: T1, recombinant human GST-Syk (Homo sapiens, UniProt P43405); test: Homogeneous Time-Resolved Fluorescence (HTRF) assay for the recombinant human Syk enzyme; assay type: biochemical; conditions: ATP 25 μM, 10-dose titration
T1 construct: purchased Carna Biosciences 08-176
Procedure, shortened: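 Recombinant GST-hSyk ([…]) was preincubated 10 min at room temperature with inhibitor (0.1% DMSO) in Tris pH 7.5, then reacted for 45 min with 250 nM biotinylated peptide, 5 mM Mg and 25 μM ATP. Phosphorylation was detected by HTRF (Eu-anti-phosphotyrosine/SA-APC). IC50 was derived from a 10-dose titration (10 μM–0.508 nM) with a 4-parameter fit.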

allergic rhinitis [2] = conditions: dosed intranasally, phase I/II study; cited from earlier work
allergic rhinitis [3] = conditions: phase II clinical trial; cited from earlier work

SMILES	IC50 ([1]; read-out: rhSYK Activity) [nM]	further results
Cc1cc(Nc2nccc(C(F)(F)F)n2)cc(-n2cnc(C(C)(C)C#N)c2)c1 [Example 110, 2-Methyl-2-[1-(3-methyl-5-{[4-(trifluoromethyl)pyrimidin-2-yl]amino}phenyl)-1H-imidazol-4-yl]propanenitrile]	100 to 1000	–
Cc1cc(Nc2nccc(C(F)(F)F)n2)cc(-n2cnc(C(C)(C)C(=O)O)c2)c1 [Example 111, 2-Methyl-2-[1-(3-methyl-5-{[4-(trifluoromethyl)pyrimidin-2-yl]amino}phenyl)-1H-imidazol-4-yl]propanoic acid]	≤ 100	–
C=C(C)c1cn(-c2cc(C)cc(Nc3nccc(C(F)(F)F)n3)c2)cn1 [Example 112, N-{3-Methyl-5-[4-(prop-1-en-2-yl)-1H-imidazol-1-yl]phenyl}-4-(trifluoromethyl)pyrimidin-2-amine]	≤ 100	–
O=C(O)CCc1cn(-c2cccc(Nc3cc(C(F)(F)F)ccn3)n2)cn1 [Example 114, 3-(1-(6-((4-(Trifluoromethyl)pyridin-2-yl)amino)pyridin-2-yl)-1H-imidazol-4-yl)propanoic acid]	≤ 100	–
Cc1cc(Nc2cc(C3CC3)ccn2)nc(-n2cnc(CCC(=O)O)c2)c1 [Example 115, 3-(1-(6-((4-cyclopropylpyridin-2-yl)amino)-4-methylpyridin-2-yl)-1H-imidazol-4-yl)propanoic acid]	≤ 100	–
Cc1cc(Nc2cc(C(F)(F)F)ccn2)nc(-n2cnc(C3(O)CCN(C(N)=O)CC3)c2)c1 [Example 116, 4-Hydroxy-4-[1-(4-methyl-6-{[4-(trifluoromethyl)pyridin-2-yl]amino}pyridin-2-yl)-1H-imidazol-4-yl]piperidine-1-carboxamide]	≤ 100	IC50 ([1]; read-out: rhSYK IC50): 3.6 nM
Cc1cc(Nc2nccc(C(F)(F)F)n2)cc(-n2cnc(C3(O)CCN(C(N)=O)CC3)c2)c1 [Example 117, 4-Hydroxy-4-[1-(3-methyl-5-{[4-(trifluoromethyl)pyrimidin-2-yl]amino}phenyl)-1H-imidazol-4-yl]piperidine-1-carboxamide]	≤ 100	IC50 ([1]; read-out: rhSYK IC50): 9 nM
Oc1cccc(Nc2ncc(F)c(Nc3cccc(O)c3)n2)c1 [Example R112]	–	PGD2 change (allergic rhinitis [2]): statistically significant decrease in PGD2; clinical safety (allergic rhinitis [2]): safe across a range of indicators; efficacy versus placebo (allergic rhinitis [3]): lack of efficacy versus placebo
